As usually defined, the AC50 is the midpoint of the concentration-response curve, whichever way the signal moves. High values mean weaker potency, low ones greater potency.

Results on 33 molecules are retold here after patent US20230104936A1, “TRPML MODULATORS” (Casma Therapeutics, Inc., priority 2019, published 2023).

Some results are limits rather than exact numbers.

The test relates to TFEB. As to the kind of experiment: TFEB nuclear translocation assay, HeLa wt cells. The test is classed as cell-based. As to conditions: Homo sapiens, HeLa, 2 h, 2 hrs compound treatment, Table 1 does not say HeLa wt or TRPML1 KO. An outline of the steps: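 HeLa wt cells were treated with compound for 2 hrs at 37° C, then fixed in 4% PFA and immunostained for TFEB with an Alexa 488 secondary and Hoechst nuclear counterstain. Automated epifluorescence imaging at ×20 gave the ratio of nuclear TFEB intensity to a perinuclear ring region, from which AC50 was derived.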
`CN(C)S(=O)(=O)c1ccc(S(=O)(=O)Nc2ccccc2N2CC3CN(Cc4ccccc4)CC3C2)cc1` (stereo not drawn) [Compound A-502, N4-(2-{5-benzyl-octahydropyrrolo[3,4-c]pyrrol-2-yl}phenyl)-N1,N1-dimethylbenzene-1,4-disulfonamide; formic acid] displayed an AC50 of at most 2 µM.

The molecule `CN(C)S(=O)(=O)c1ccc(S(=O)(=O)n2nc(C3CCN(c4c(F)cccc4F)CC3)c3c2CCCN3)cc1` [Compound A-503, 4-((3-(1-(2,6-difluorophenyl)piperidin-4-yl)-4,5,6,7-tetrahydro-1H-pyrazolo[4,3-b]pyridin-1-yl)sulfonyl)-N,N-dimethylbenzenesulfonamide] returned an AC50 of at most 2 µM. To `CN(C)S(=O)(=O)c1ccc(S(=O)(=O)n2nc(C3CCN(c4c(F)cccc4F)CC3)c3c2CCCC3)cc1` [Compound A-504, 4-({3-[1-(2,6-difluorophenyl)piperidin-4-yl]-4,5,6,7-tetrahydro-1H-indazol-1-yl}sulfonyl)-N,N-dimethylbenzene-1-sulfonamide] belongs at most 2 µM. To `CC(c1cccnc1)N1CCN(c2ccccc2NS(=O)(=O)c2ccc(S(=O)(=O)N(C)C)cc2)CC1` (stereo not drawn) [Compound A-505, N1,N1-dimethyl-N4-(2-{4-[1-(pyridin-3-yl)ethyl]piperazin-1-yl}phenyl)benzene-1,4-disulfonamide] belongs 2.01 to 8 µM; to `CN(C)S(=O)(=O)c1ccc(S(=O)(=O)Nc2ccccc2N2CCC(C(C)(F)F)CC2)cc1` [Compound A-506, N4-{2-[4-(1,1-difluoroethyl)piperidin-1-yl]phenyl}-N1,N1-dimethylbenzene-1,4-disulfonamide], at most 2 µM; to `CN(C)S(=O)(=O)c1ccc(S(=O)(=O)Nc2ccccc2N2CCCC3(COC3)C2)cc1` [Compound A-507, N1,N1-dimethyl-N4-(2-{2-oxa-6-azaspiro[3.5]nonan-6-yl}phenyl)benzene-1,4-disulfonamide], 2.01 to 8 µM. To `CN(C)S(=O)(=O)c1ccc(S(=O)(=O)Nc2ccccc2N2CCCC23CCOC3)cc1` (stereo not drawn) [Compound A-508, N1,N1-dimethyl-N4-(2-{7-oxa-1-azaspiro[4.4]nonan-1-yl}phenyl)benzene-1,4-disulfonamide] belongs 2.01 to 8 µM; to `CN(C)S(=O)(=O)c1ccc(S(=O)(=O)Nc2ccccc2N2CCN(CC3CCOC3)CC2)cc1` (stereo not drawn) [Compound A-509, N1,N1-dimethyl-N4-(2-{4-[(oxolan-3-yl)methyl]piperazin-1-yl}phenyl)benzene-1,4-disulfonamide], 2.01 to 8 µM; to `CN(C)S(=O)(=O)c1ccc(S(=O)(=O)Nc2ccccc2N2CCN(CC3CCOCC3)CC2)cc1` [Compound A-510, N1,N1-dimethyl-N4-(2-{4-[(oxan-4-yl)methyl]piperazin-1-yl}phenyl)benzene-1,4-disulfonamide], at most 2 µM. Take `CN(C)S(=O)(=O)c1ccc(S(=O)(=O)Nc2ccccc2N2CCCC3(CCCOC3)C2)cc1` (stereo not drawn) [Compound A-511, N1,N1-dimethyl-N4-(2-{2-oxa-8-azaspiro[5.5]undecan-8-yl}phenyl)benzene-1,4-disulfonamide]: the AC50 is at most 2 µM. `CC(C)c1ccc(S(=O)(=O)Nc2ccccc2N2CCN(C(=O)C(C)(C)C)CC2)cc1` [Compound A-512, N-{2-[4-(2,2-dimethylpropanoyl)piperazin-1-yl]phenyl}-4-(propan-2-yl)benzene-1-sulfonamide] came in with an AC50 of 2.01 to 8 µM. As to `CCC(C)c1ccc(S(=O)(=O)Nc2ccccc2N2CCN(C(=O)C(C)(C)C)CC2)cc1` (stereo not drawn) [Compound A-513, 4-(butan-2-yl)-N-{2-[4-(2,2-dimethylpropanoyl)piperazin-1-yl]phenyl}benzene-1-sulfonamide], the AC50 lay within 2.01 to 8 µM. To `CC1(C)Cc2cc(S(=O)(=O)Nc3ccccc3N3CCN(C(=O)C(C)(C)C)CC3)ccc2O1` [Compound A-514, N-{2-[4-(2,2-dimethylpropanoyl)piperazin-1-yl]phenyl}-2,2-dimethyl-2,3-dihydro-1-benzofuran-5-sulfonamide] belongs at most 2 µM; to `Cn1ccc2cc(S(=O)(=O)Nc3ccccc3N3CCN(C(=O)C(C)(C)C)CC3)ccc21` [Compound A-515, N-{2-[4-(2,2-dimethylpropanoyl)piperazin-1-yl]phenyl}-1-methyl-1H-indole-5-sulfonamide], 2.01 to 8 µM. The molecule `CC(C)(C)C(=O)N1CCN(c2ccccc2NS(=O)(=O)c2ccc(C(C)(C)C)cc2)CC1` [Compound A-516, 4-tert-butyl-N-{2-[4-(2,2-dimethylpropanoyl)piperazin-1-yl]phenyl}benzene-1-sulfonamide] displayed an AC50 of 2.01 to 8 µM. To `CN1CC2(CCN(c3ccccc3NS(=O)(=O)c3ccc(SC(C)(C)C)cc3)CC2)c2ccc(F)cc21` [Compound A-517, 4-(tert-butylsulfanyl)-N-(2-{6-fluoro-1-methyl-1,2-dihydrospiro[indole-3,4′-piperidin]-1′-yl}phenyl)benzene-1-sulfonamide] belongs 2.01 to 8 µM. `COCCOCC1(C)CCN(c2ccccc2NS(=O)(=O)c2ccc(S(=O)(=O)N(C)C)cc2)CC1` [Compound A-518, N4-(2-{4-[(2-methoxyethoxy)methyl]-4-methylpiperidin-1-yl}phenyl)-N1,N1-dimethylbenzene-1,4-disulfonamide] had an AC50 of at most 2 µM. To `COCCOCCOCC1(C)CCN(c2ccccc2NS(=O)(=O)c2ccc(S(=O)(=O)N(C)C)cc2)CC1` [Compound A-519, N4-[2-(4-{[2-(2-methoxyethoxy)ethoxy]methyl}-4-methylpiperidin-1-yl)phenyl]-N1,N1-dimethylbenzene-1,4-disulfonamide] belongs at most 2 µM; to `Cc1ccc(N2CCOCC2)c(NS(=O)(=O)c2ccc3c(c2)CCC3)c1` [Compound A-520, N-[5-methyl-2-(morpholin-4-yl)phenyl]-2,3-dihydro-1H-indene-5-sulfonamide], at most 2 µM; to `COc1ccc(N2CCOCC2)c(NS(=O)(=O)c2ccc3c(c2)CCC3)c1` [Compound A-521, N-[5-methoxy-2-(morpholin-4-yl)phenyl]-2,3-dihydro-1H-indene-5-sulfonamide], at most 2 µM. To `CN(C)S(=O)(=O)c1ccc(S(=O)(=O)Nc2ccccc2N2CCC(C)(C(C)(C)O)CC2)cc1` [Compound A-522, N1-(2-(4-(2-hydroxypropan-2-yl)-4-methylpiperidin-1-yl)phenyl)-N4,N4-dimethylbenzene-1,4-disulfonamide] belongs 2.01 to 8 µM; to `CCOC1(C)CCN(c2ccccc2NS(=O)(=O)c2ccc(S(=O)(=O)N(C)C)cc2)CC1` [Compound A-523, N4-[2-(4-ethoxy-4-methylpiperidin-1-yl)phenyl]-N1,N1-dimethylbenzene-1,4-disulfonamide], at most 2 µM. To `CN(C)S(=O)(=O)c1ccc(S(=O)(=O)Nc2ccccc2N2CCC3(CCOCC3)CC2)cc1` [Compound A-524, N1,N1-dimethyl-N4-(2-{3-oxa-9-azaspiro[5.5]undecan-9-yl}phenyl)benzene-1,4-disulfonamide] belongs at most 2 µM; to `CN(C)S(=O)(=O)c1ccc(S(=O)(=O)Nc2ccccc2N2CCN(CC(C)(F)F)CC2)cc1` [Compound A-525, N4-{2-[4-(2,2-difluoropropyl)piperazin-1-yl]phenyl}-N1,N1-dimethylbenzene-1,4-disulfonamide], at most 2 µM. The molecule `CC(C)CN1CCN(c2ccccc2NS(=O)(=O)c2ccc(S(=O)(=O)N(C)C)cc2)CCC1=O` [Compound A-526, N1,N1-dimethyl-N4-{2-[4-(2-methylpropyl)-5-oxo-1,4-diazepan-1-yl]phenyl}benzene-1,4-disulfonamide] had an AC50 of 2.01 to 8 µM. To `CC(C)(C)C(=O)N1CCN(c2ccccc2NS(=O)(=O)c2ccc(C(F)(F)F)cc2)CC1` [Compound A-527, N-{2-[4-(2,2-dimethylpropanoyl)piperazin-1-yl]phenyl}-4-(trifluoromethyl)benzene-1-sulfonamide] belongs 2.01 to 8 µM; to `CC(C)(C)C(=O)N1CCN(c2ccccc2NS(=O)(=O)c2ccc(C3CC3(F)F)cc2)CC1` (stereo not drawn) [Compound A-528, 4-(2,2-difluorocyclopropyl)-N-{2-[4-(2,2-dimethylpropanoyl)piperazin-1-yl]phenyl}benzene-1-sulfonamide], 2.01 to 8 µM; to `CC(C)(C)C(=O)N1CCN(c2ccccc2NS(=O)(=O)c2ccc(C(F)F)cc2)CC1` [Compound A-529, 4-(difluoromethyl)-N-{2-[4-(2,2-dimethylpropanoyl)piperazin-1-yl]phenyl}benzene-1-sulfonamide], 2.01 to 8 µM.

`CC1Cc2cc(S(=O)(=O)Nc3ccccc3N3CCN(C(=O)C(C)(C)C)CC3)ccc2O1` (stereo not drawn) [Compound A-530, N-{2-[4-(2,2-dimethylpropanoyl)piperazin-1-yl]phenyl}-2-methyl-2,3-dihydro-1-benzofuran-5-sulfonamide] displayed an AC50 of 2.01 to 8 µM. To `COc1ccc(S(=O)(=O)Nc2ccccc2N2CCN(C(C)C(F)(F)F)CC2)cc1` (stereo not drawn) [Compound A-531, 4-methoxy-N-{2-[4-(1,1,1-trifluoropropan-2-yl)piperazin-1-yl]phenyl}benzene-1-sulfonamide] belongs at most 2 µM; to `COCC1(C)CCN(c2ccccc2NS(=O)(=O)Cc2ccccc2)CC1` [Compound A-532, N-{2-[4-(methoxymethyl)-4-methylpiperidin-1-yl]phenyl}-1-phenylmethanesulfonamide], at most 2 µM. To `CN(C)S(=O)(=O)c1ccc(S(=O)(=O)n2nc(C3CCN(c4c(F)cccc4F)CC3)c3c2CCNC3)cc1` [Compound A-533, 4-({3-[1-(2,6-difluorophenyl)piperidin-4-yl]-1H,4H,5H,6H,7H-pyrazolo[4,3-c]pyridin-1-yl}sulfonyl)-N,N-dimethylbenzene-1-sulfonamide] belongs 2.01 to 8 µM. Consider `CC(C)(C)C(=O)N1CCN(c2ccccc2NS(=O)(=O)c2ccc3c(c2)CC(Cl)(Cl)C3=O)CC1` [Compound A-534, 2,2-dichloro-N-{2-[4-(2,2-dimethylpropanoyl)piperazin-1-yl]phenyl}-1-oxo-2,3-dihydro-1H-indene-5-sulfonamide], for which the AC50 fell in the range of 2.01 to 8 µM.
